# In the supplement of paper PMC10307832:
# Experiments:
# Experiment in all cases: relative viability (nuclei count vs DMSO), 5 days (fraction); higher = more cells survive
# CAL-12T = system: CAL-12T
# In short: (§1)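 A single step with final 0.05% Triton X-100, 1% formaldehyde and 1 ug/ml Hoechst fixed the cells and stained nuclei 5 days after treatment. Lung cancer cell lines in 1536-well plates had been treated by pin tool the day after seeding with one drug alone or a fixed anchor-drug dose plus five library-drug doses (not always all listed) in √10 steps, and nuclei were counted on 4× images. Relative viability is the ratio of nuclei in treated wells to nuclei in vehicle wells, taken as the median of duplicate plates.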
# COR-L 105 = system: COR-L 105
# In short: as §1
# EMC-BAC-2 = system: EMC-BAC-2
# In short: as §1
# H3255 = system: H3255
# In short: as §1
# LC-2-ad = system: LC-2-ad
# In short: as §1
# LK-2 = system: LK-2
# In short: as §1
# NCI-H1395 = system: NCI-H1395
# In short: as §1
# NCI-H1437 = system: NCI-H1437
# In short: as §1
# NCI-H1651 = system: NCI-H1651
# In short: as §1
# NCI-H1755 = system: NCI-H1755
# In short: as §1
# NCI-H1793 = system: NCI-H1793
# In short: as §1
# NCI-H1915 = system: NCI-H1915
# In short: as §1
# NCI-H1944 = system: NCI-H1944
# In short: as §1
# NCI-H2085 = system: NCI-H2085
# In short: as §1
# NCI-H2087 = system: NCI-H2087
# In short: as §1
# NCI-H2228 = system: NCI-H2228
# In short: as §1
# NCI-H2342 = system: NCI-H2342
# In short: as §1
# NCI-H2347 = system: NCI-H2347
# In short: as §1
# NCI-H522 = system: NCI-H522
# In short: as §1
# NCI-H661 = system: NCI-H661
# In short: as §1
# PC-3 [JPC-3] = system: PC-3 [JPC-3]
# In short: as §1
# SK-LU-1 = system: SK-LU-1
# In short: as §1
structure (smiles),measurement,setting,value
COCC1(CO)C(=O)C2CCN1CC2 (stereo unspecified) [PRIMA-1MET] + CC(=O)c1c(C)c2cnc(Nc3ccc(N4CCNCC4)cn3)nc2n(C2CCCC2)c1=O [Palbociclib] (partner 0.5 µM),relative viability,CAL-12T; first compound 0.2 µM,0.339
same,relative viability,CAL-12T; first compound 0.6325 µM,0.373
same,relative viability,CAL-12T; first compound 2 µM,0.446
same,relative viability,CAL-12T; first compound 6.325 µM,0.439
same,relative viability,CAL-12T; first compound 20 µM,0.0494
same,relative viability,COR-L 105; first compound 0.2 µM,0.41
same,relative viability,COR-L 105; first compound 0.6325 µM,0.363
same,relative viability,COR-L 105; first compound 2 µM,0.385
same,relative viability,COR-L 105; first compound 6.325 µM,0.41
same,relative viability,COR-L 105; first compound 20 µM,0.16
same,relative viability,EMC-BAC-2; first compound 0.2 µM,0.586
same,relative viability,EMC-BAC-2; first compound 0.6325 µM,0.466
same,relative viability,EMC-BAC-2; first compound 2 µM,0.478
same,relative viability,EMC-BAC-2; first compound 6.325 µM,0.503
same,relative viability,EMC-BAC-2; first compound 20 µM,0.499
same,relative viability,H3255; first compound 0.2 µM,0.319
same,relative viability,H3255; first compound 0.6325 µM,0.293
same,relative viability,H3255; first compound 2 µM,0.312
same,relative viability,H3255; first compound 6.325 µM,0.294
same,relative viability,H3255; first compound 20 µM,0.33
same,relative viability,LC-2-ad; first compound 0.2 µM,0.496
same,relative viability,LC-2-ad; first compound 0.6325 µM,0.484
same,relative viability,LC-2-ad; first compound 2 µM,0.525
same,relative viability,LC-2-ad; first compound 6.325 µM,0.457
same,relative viability,LC-2-ad; first compound 20 µM,0.468
same,relative viability,LK-2; first compound 0.2 µM,0.814
same,relative viability,LK-2; first compound 0.6325 µM,0.705
same,relative viability,LK-2; first compound 2 µM,0.534
same,relative viability,LK-2; first compound 6.325 µM,0.211
same,relative viability,LK-2; first compound 20 µM,0.0375
same,relative viability,NCI-H1395; first compound 0.2 µM,0.665
same,relative viability,NCI-H1395; first compound 2 µM,0.641
same,relative viability,NCI-H1395; first compound 6.325 µM,0.656
same,relative viability,NCI-H1395; first compound 20 µM,0.578
same,relative viability,NCI-H1437; first compound 0.2 µM,0.322
same,relative viability,NCI-H1437; first compound 0.6325 µM,0.313
same,relative viability,NCI-H1437; first compound 2 µM,0.306
same,relative viability,NCI-H1437; first compound 6.325 µM,0.324
same,relative viability,NCI-H1437; first compound 20 µM,0.299
same,relative viability,NCI-H1651; first compound 0.2 µM,0.602
same,relative viability,NCI-H1651; first compound 0.6325 µM,0.389
same,relative viability,NCI-H1651; first compound 2 µM,0.473
same,relative viability,NCI-H1651; first compound 6.325 µM,0.569
same,relative viability,NCI-H1651; first compound 20 µM,0.526
same,relative viability,NCI-H1755; first compound 0.2 µM,0.479
same,relative viability,NCI-H1755; first compound 0.6325 µM,0.397
same,relative viability,NCI-H1755; first compound 2 µM,0.43
same,relative viability,NCI-H1755; first compound 6.325 µM,0.482
same,relative viability,NCI-H1755; first compound 20 µM,0.459
same,relative viability,NCI-H1793; first compound 0.2 µM,0.326
same,relative viability,NCI-H1793; first compound 0.6325 µM,0.32
same,relative viability,NCI-H1793; first compound 6.325 µM,0.332
same,relative viability,NCI-H1793; first compound 20 µM,0.331
same,relative viability,NCI-H1915; first compound 0.2 µM,0.507
same,relative viability,NCI-H1915; first compound 0.6325 µM,0.496
same,relative viability,NCI-H1915; first compound 2 µM,0.451
same,relative viability,NCI-H1915; first compound 6.325 µM,0.518
same,relative viability,NCI-H1915; first compound 20 µM,0.523
same,relative viability,NCI-H1944; first compound 0.2 µM,0.357
same,relative viability,NCI-H1944; first compound 0.6325 µM,0.285
same,relative viability,NCI-H1944; first compound 2 µM,0.288
same,relative viability,NCI-H1944; first compound 6.325 µM,0.312
same,relative viability,NCI-H1944; first compound 20 µM,0.295
same,relative viability,NCI-H2085; first compound 0.2 µM,0.526
same,relative viability,NCI-H2085; first compound 0.6325 µM,0.515
same,relative viability,NCI-H2085; first compound 2 µM,0.475
same,relative viability,NCI-H2085; first compound 6.325 µM,0.472
same,relative viability,NCI-H2085; first compound 20 µM,0.166
same,relative viability,NCI-H2087; first compound 0.6325 µM,0.183
same,relative viability,NCI-H2087; first compound 2 µM,0.22
same,relative viability,NCI-H2087; first compound 6.325 µM,0.203
same,relative viability,NCI-H2087; first compound 20 µM,0.13
same,relative viability,NCI-H2228; first compound 0.2 µM,0.631
same,relative viability,NCI-H2228; first compound 0.6325 µM,0.778
same,relative viability,NCI-H2228; first compound 2 µM,0.742
same,relative viability,NCI-H2228; first compound 6.325 µM,0.402
same,relative viability,NCI-H2228; first compound 20 µM,0.0392
same,relative viability,NCI-H2342; first compound 0.2 µM,0.602
same,relative viability,NCI-H2342; first compound 0.6325 µM,0.452
same,relative viability,NCI-H2342; first compound 6.325 µM,0.535
same,relative viability,NCI-H2342; first compound 20 µM,0.463
same,relative viability,NCI-H2347; first compound 0.2 µM,0.451
same,relative viability,NCI-H2347; first compound 0.6325 µM,0.317
same,relative viability,NCI-H2347; first compound 2 µM,0.365
same,relative viability,NCI-H2347; first compound 6.325 µM,0.42
same,relative viability,NCI-H2347; first compound 20 µM,0.313
same,relative viability,NCI-H522; first compound 0.2 µM,1.05
same,relative viability,NCI-H522; first compound 0.6325 µM,0.94
same,relative viability,NCI-H522; first compound 2 µM,0.862
same,relative viability,NCI-H522; first compound 6.325 µM,0.774
same,relative viability,NCI-H522; first compound 20 µM,0.25
same,relative viability,NCI-H661; first compound 0.2 µM,0.418
same,relative viability,NCI-H661; first compound 0.6325 µM,0.391
same,relative viability,NCI-H661; first compound 2 µM,0.414
same,relative viability,NCI-H661; first compound 6.325 µM,0.423
same,relative viability,NCI-H661; first compound 20 µM,0.446
same,relative viability,PC-3 [JPC-3]; first compound 0.2 µM,0.597
same,relative viability,PC-3 [JPC-3]; first compound 0.6325 µM,0.608
same,relative viability,PC-3 [JPC-3]; first compound 2 µM,0.573
same,relative viability,PC-3 [JPC-3]; first compound 6.325 µM,0.574
same,relative viability,PC-3 [JPC-3]; first compound 20 µM,0.521
same,relative viability,SK-LU-1; first compound 0.2 µM,0.395
same,relative viability,SK-LU-1; first compound 0.6325 µM,0.385
same,relative viability,SK-LU-1; first compound 2 µM,0.255
same,relative viability,SK-LU-1; first compound 6.325 µM,0.376
same,relative viability,SK-LU-1; first compound 20 µM,0.32
